Data on 17 compounds can be found in PMC8263619, “Functional characteristics of a novel odorant binding protein in the legume pod borer, Maruca vitrata” (Scientific Reports, 2021).

The target in one assay is MvitOBP3 protein. As to the kind of experiment: Fluorescence competitive binding assay with 1-NPN probe. On the set-up: species or system Maruca vitrata. Conditions: recombinant MvitOBP3, 1-NPN fluorescent probe; for IC50: read-out: IC50, ligand concentration displacing 50% of the fluorescence intensity of the MvitOBP/N-phenyl-1-naphthylamine complex; for Ki: read-out: Ki, dissociation constant. The method, then:
The fluorescence measurement takes advantage of the fluorescent properties of the dye, 1-NPN (N-Phenyl-1-naphthylamine, CAS 90-30-2) and is performed by Hitachi F-4500. The wavelength of excitation light was 337 nm, the range of scanning emission wavelength was 350–500 nm, and the slit width was 5 nm. […] Add 2 mL of the protein with a final concentration of 2 μmol/L to a 1 cm, four-sided quartz cup, then add 1-NPN (1 mM/L) to the final concentration is 2–24 μmol/L. And recorded the maximum fluorescence value and determine the protein dissociation constant K1-NPN.
In fluorescence competitive binding assay, the 1-NPN was used as the fluorescent probe, and the dissociation constant (Ki) values of the MvitOBP3/1-NPN complexes were calculated according to the changes in the fluorescence intensity (Fig. 5A). […] These seventeen volatile ligands from host-plant were selected to test binding affinities of MvitOBP3 (Fig. 5 and Table 2).

For the next assay, the target named is MvitGOBP1. On the set-up: method as in PMID 26517714. Conditions: cited from earlier work.
The next assay has as its target MvitGOBP2 protein. The arrangement: method as in PMID 26517714. Conditions: cited from earlier work.

The term Ki denotes the dissociation constant of the complex between target and ligand, obtained from inhibition or displacement. For `CCc1cccc(CC)c1` [1,3-diethylbenzene], on MvitOBP3 protein, the IC50 is 33.6 µM and the Ki came to 29.7 µM.

On to `CC(=O)c1ccc(C(C)=O)cc1` [1,4-diacetyl benzene], for which, on MvitOBP3 protein, the IC50 stood at 28.4 µM and the Ki amounted to 25.1 µM.

`CCc1ccc(CC)cc1` [1,4-diethylbenzene]: on MvitOBP3 protein, the IC50 stood at 29.3 µM and the Ki was determined as 25.9 µM.

Regarding `Cc1cc(C)cc(C(C)(C)C)c1` [1-(1,1-Dimethylethyl)-3,5-dimethylbenzene], on MvitOBP3 protein, the IC50 is 21.8 µM and the Ki is 19.3 µM.

On to `CC(=O)c1ccc(C)cc1C` [1-(2,4-Dimethylphenyl)-ethanone], for which, at MvitOBP3 protein, the IC50 worked out at 21.4 µM and the Ki amounted to 18.9 µM.

`CCc1ccc(C(C)=O)cc1` [1-(4-ethylphenyl)-ethanone]: on MvitOBP3 protein, the IC50 came to 24.1 µM and the Ki came to 21.3 µM.

`Oc1cccc2[nH]ccc12` [1H-indol-4-ol]: at MvitOBP3 protein, the IC50 is 12.6 µM and the Ki is 11.2 µM. Further, the Ki on MvitGOBP1 is 10.9 µM.

For the compound `O=Cc1ccccc1O` [2-hydroxybenzaldehyde], at MvitOBP3 protein, the IC50 worked out at 24.2 µM and the Ki came to 21.4 µM.

As to `CC(C=O)Cc1ccccc1` (stereo not shown) [2-methyl-3-phenylpropanal], the Ki on MvitGOBP2 protein is 3.81 µM. At MvitOBP3 protein, the IC50 was 10.6 µM and the Ki is 9.38 µM.

Consider `CCc1ccc(C=O)cc1` [4-ethylbenzaldehyde], for which, at MvitOBP3 protein, the IC50 turned out to be 22.8 µM and the Ki worked out at 20.1 µM.

On to `CCC(=O)c1ccc(CC)cc1` [4-ethylpropiophenone], for which the IC50 on MvitOBP3 protein was found to be 26.7 µM. For the same compound, the Ki was 23.6 µM on MvitOBP3 protein and 14.2 µM at MvitGOBP1.

On to `CC(=O)c1ccc(O)c(C)c1` [4-hydroxy-3-methylacetophenone], for which, on MvitOBP3 protein, the IC50 was determined as 22.7 µM and the Ki is 20.1 µM.

On to `CC(=O)c1ccccc1` [Acetophenone], for which, on MvitOBP3 protein, the IC50 was 41.8 µM and the Ki amounted to 37 µM.

For `O=Cc1ccccc1` [Benzaldehyde], on MvitOBP3 protein, the IC50 turned out to be 43.3 µM and the Ki was 38.3 µM.

For the compound `CCCCOC(=O)CCC` [Butanoic acid butyl ester], the IC50 at MvitOBP3 protein was found to be 11.1 µM. Besides, the Ki on MvitOBP3 protein is 9.79 µM; on MvitGOBP1, 12.5 µM.

For `CCCCCCCCOC(=O)CCC` [Butanoic acid octyl ester], the Ki on MvitGOBP2 protein was 8.5 µM. Further, at MvitOBP3 protein, the IC50 came to 21.2 µM and the Ki came to 18.7 µM.

Consider `C=C(C)C1CC=C(C)CC1` (stereo not shown) [Limonene], for which, on MvitOBP3 protein, the IC50 was found to be 9.4 µM and the Ki was found to be 8.31 µM. Further, the Ki on MvitGOBP1 was 13.8 µM.
